Experimental data: US7651846B2, “Treatment and diagnosis of conditions associated with elevated arginase activity” (Children's Hospital & Research Center at Oakland, priority 2003, dated 2010)

Tests used:
asthma patients = details: nebulised, steroid naive asthma; cited from earlier work
[1] = tested on: patients with a known diagnosis of asthma; details: single oral dose 0.1 gm/kg, one patient
Protocol: The effects of arginine supplementation on pulmonary function tests is evaluated by administering supplemental arginine (oral or intravenous) alone or in conjunction with magnesium and/or an arginase inhibitor to patients with a known diagnosis of asthma, defined as ≧3 wheezing episodes and a past history of asthma medication usage (e.g., bronchodilators, steroids, inhaled steroids, or leukotriene inhibitors etc). Pulmonary function tests are performed before and after a single dose of arginine (0.1 gram/kg to a max of 10 grams).
A single dose of oral arginine (0.1 gm/kg) was administered. Pulmonary function tests were determined prior to treatment and 2 hours after arginine supplementation.

[2] = tested on: hyperresponsiveness of reactive airways; details: animal studies, inhalation of low doses; cited from earlier work
[3] = tested on: Patients with sickle cell disease and documented pulmonary hypertension; assay: Oral L-arginine in sickle cell disease patients with pulmonary hypertension, Doppler echocardiography; type: in vivo, human
Description: Sickle cell patients. Seventeen sickle cell disease patients with documented pulmonary hypertension at steady-state were enrolled in the study. All known patients with pulmonary hypertension receiving care at the Northern California Comprehensive Sickle Cell Center were approached for participation in this analysis. Twelve patients were homozygous for hemoglobin S, three patients had hemoglobin type SC, and two patient had hemoglobin S β-thalassemia. The mean age of patients was 32.7±15 years with a range of 13 to 63 years. There were seven women enrolled. Ten ethnically matched normal non-sickle cell disease volunteers were enrolled as a control group in order to compare amino acid levels and arginase activity. The mean age was 20.6±10 years, ranging from 10 to 34 years. There were four females and six males enrolled. Pulmonary hypertension was defined as estimated pulmonary artery pressures >30 mm Hg by echocardiogram (or tricuspid regurgitant jet velocity of greater than 2.5 m/sec), >two months duration, not associated with acute chest syndrome. A chart review was performed on all patients to obtain tricuspid regurgitant jet velocity data from previous echocardiograms.
(§1) Patients with sickle cell disease and documented pulmonary hypertension by echocardiography were treated with oral L-arginine-HCl, at a dose of 0.1 g/kg TID for five days. […] Blood samples for determination of amino acid levels were drawn in the morning of Day 0 (pre-treatment), […], and Day six of the study. Arginase activity levels were determined on Day 0. No patients were being concurrently treated with vasodilators or anticoagulant agents, and no patients received a red blood cell transfusion during the five-day study period. Cardiologists involved in the interpretation of echocardiograms were unaware of the therapy given.
Echocardiography. […] They were the only patient found to not show an improvement in pulmonary hypertension by echocardiogram.
Results were unavailable from outside hospitals in three patients. […]

[4] = tested on: cationic amino acid molecules (Cationic Amino Acid Transporter, CAT); details: read-out: Km for arginine transport; cited from earlier work
patients with asthma = details: oral; cited from earlier work
[5] = Plasma amino acid levels after oral L-arginine supplementation in SCD patients with pulmonary hypertension; type: in vivo, human; details: after five days of oral L-arginine supplementation, n=10, p<0.05
Protocol: Amino Acid Levels. (A complete amino acid panel, including arginine, citrulline, ornithine, and L-arginine analogue asymmetric di-methyl-L-arginine). Quantitative plasma amino acid levels are measured in μmol/L, using a Beckman 6300 amino acid analyzer. The amino acids are separated on an lithium ion exchange column and then reacted with ninhydrin to generate a color response. The data is collected and analyzed using Beckman 32 Karat software, at the Molecular Structure Facility, University of California, Davis, Calif.
as §1

cystic fibrosis patients = details: inhaled; cited from earlier work
[6] = tested on: normal and asthmatic subjects; details: inhaled, dose-dependent; cumulative effect higher in asthmatic subjects; cited from earlier work
arginase = details: cited from earlier work

| Compound | exhaled NO following administration (asthma patients) | FIF 50% improvement ([1]; 2 hours after) [%] | effect on lung volumes ([1]; 2 hours after) | effect on spirometry ([1]; 2 hours after) | airway conductance, Gaw increase ([1]; within 2 hours) [%] | airway resistance, Raw decrease ([1]; within 2 hours) [%] | oxygen saturation by venous blood gas after treatment ([1]; increase from 85 %) [%] | hyperresponsiveness of reactive airways [2] | pulmonary artery systolic pressure after therapy ([3]; oral 0.1 g/kg TID for five days, baseline 63.9±13 mmHg, p=0.002) [mmHg] | mean reduction of pulmonary artery systolic pressure ([3]; oral L-arginine-HCl 0.1 g/kg TID, after five days of therapy, p=0.002) [%] | follow-up echocardiography (pulmonary artery systolic pressure) ([3]; ≧one month after arginine therapy, nine compliant patients: four reverted to baseline, four persistent improvement, one worsening) | Km [4] [µM] | airway hyperresponsiveness to histamine as reflected by PC(20) (patients with asthma) | plasma L-arginine concentration [5] | plasma ornithine concentration [5] | pulmonary functions (cystic fibrosis patients) | exhaled NO [6] | inhibition of arginase activity (arginase) |
| --- | --- | --- | --- | --- | --- | --- | --- | --- | --- | --- | --- | --- | --- | --- | --- | --- | --- | --- |
| N=C(N)NCCC[C@@H](N)C(=O)O [D-arginine] | increased |  |  |  |  |  |  |  |  |  |  |  |  |  |  |  |  |  |
| N=C(N)NCCC[C@H](N)C(=O)O [L-arginine] | increased | 23 | minimal effect | did not significantly effect spirometry | 28 | 22 | 92 | completely blocked | 54.2±12 | 15.2 | mixed results | ~100 | does not influence | increased significantly | increased significantly | improves | increased |  |
| NC(=NCCC[C@H](N)C(=O)O)NO [NG-hydroxyl-L-arginine] |  |  |  |  |  |  |  |  |  |  |  |  |  |  |  |  |  | potent inhibitor |
